Results on four compounds are retold here after patent publication US20160000080A1, “COMPOSITIONS CONTAINING ISOSORBIDE MONOESTER AND ALIPHATIC VICINAL DIOLS” (CLARIANT INTERNATIONAL LTD., priority 2011, published 2016).

The subject of assay [1] is bacteria, fungi and yeasts. The following applies: general statement, no test described, cited from earlier work.
The subject of assay [2] is Penicillium minioluteum. The assay can be described thus: Minimum inhibitory concentration (MIC) in agar. In kind it is cell-based. The settings on record: Penicillium minioluteum (F). Here is the method:
(§1) Below, the antimicrobial efficacy of a composition according to the invention consisting of 50% by weight of isorbide caprylate 1 and 50% by weight of ethylhexylglycerin against bacteria, fungi and yeasts is examined (hereinbelow, the composition is referred to as “composition A”). For the tests with bacteria, composition A was diluted with butyl polyglycol and then, at 50° C., added to liquid CASO agar (casein-peptone agar) buffered to pH 7 (+/−0.2) in various concentrations (hereinbelow referred to as compositions B1, B2, etc.). For the tests with fungi and yeasts, composition A was diluted with butyl polyglycol and then added to liquid Sabouraud 4% dextrose agar buffered to pH 5.6 (+/−0.2) in various concentrations (hereinbelow referred to as compositions PH1, PH2, etc.). The compositions B1, B2, etc. and PH1, PH2 etc. were each poured into Petri dishes and each inoculated with identical amounts of bacteria, fungi and yeasts. The minimum inhibitory concentration (MIC) is the concentration at which inhibition of the growth of the bacteria, fungi and yeasts in the compositions B1, B2, etc. and PH1, PH2, etc. occurs.
(§2) The minimum inhibitory concentrations for the pure substances isosorbide caprylate 1 and ethylhexylglycerin were determined analogously.
(§3) The values determined for the minimum inhibitory concentrations “MIC mixture”, stated in Table 1 below, are based on the concentrations of composition A.
(§4) The values determined for the minimum inhibitory concentrations “QA” and “QB”, stated in Table 1 below, have already been corrected for the dilution effect of the butyl polyglycol.
(§5) From the minimum inhibitory concentrations determined, it is then possible to calculate whether a synergistic effect is present or not. Whether a synergistic effect is present is calculated according to F. C. Kull et al., Applied Microbiology 1961, 9, 538 using the formula below: […]
(§6) where • Qa is the minimum inhibitory concentration of isosorbide caprylate 1 in the mixture employed, • QA is the minimum inhibitory concentration of isosorbide caprylate 1, • Qb is the minimum inhibitory concentration of ethylhexylglycerin in the mixture employed and • QB is the minimum inhibitory concentration of ethylhexylglycerin.
(§7) The values for Qa and Qb are determined from the values for the mixtures (“MIC mixture”) by multiplying the minimum inhibitory concentrations determined for Qa with the factor 0.5 and for Qb with the factor 0.5, because of the proportions of the ingredients—50% by weight of isosorbide caprylate 1 and 50% by weight of ethylhexylglycerin—in composition A according to the invention examined.
(§8) If an SE value>1 is obtained, an antagonistic effect is present. If SE=1, the compounds are neutral with respect to one another, and if SE<1, a synergistic effect is present.
(§9) Analogously to the determination of the antimicrobial activity according to the above example B), the antimicrobial activity of a mixture comprising, firstly, 89.6% by weight of isosorbide dicaprylate and 9.4% by weight of isosorbide monocaprylate (remainder: 1% by weight) (hereinbelow referred to as “isosorbide dicaprylate”) and, secondly, pure isosorbide was determined in further test series.

In assay [3] the test system is Enterobacter aerogenes. The assay can be described thus: Minimum inhibitory concentration (MIC) in agar. In kind it is cell-based. The following applies: Enterobacter aerogenes (B). The method, then: as §1, §2, §3, §4, §5, §6, §7, §8, §9
Assay [4] relates to Staphylococcus aureus. The assay can be described thus: Minimum inhibitory concentration (MIC) in agar. It is filed as cell-based. The following applies: Staphylococcus aureus (B). The method, then:
as §1, §2, §3, §4, §5, §6, §7, §8, §9

Assay [5] concerns Fusarium solani. The assay can be described thus: Minimum inhibitory concentration (MIC) in agar. It is filed as cell-based. The settings on record: Fusarium solani (F). Here is the method:
as §1, §2, §3, §4, §5, §6, §7, §8, §9

The test system of assay [6] is Penicillium funicolosium. The assay can be described thus: Minimum inhibitory concentration (MIC) in agar. In kind it is cell-based. The settings on record: Penicillium funicolosium (F). Here is the method:
as §1, §2, §3, §4, §5, §6, §7, §8, §9

Assay [7] has as its system Aspergillus brasiliensis. The assay can be described thus: Minimum inhibitory concentration (MIC) in agar. In kind it is cell-based. The settings on record: Aspergillus brasiliensis (F). Here is the method:
as §1, §2, §3, §4, §5, §6, §7, §8, §9

For assay [8], the system named is Candida albicans. The assay can be described thus: Minimum inhibitory concentration (MIC) in agar. In kind it is cell-based. The following applies: Candida albicans (Y). The method, then:
as §1, §2, §3, §4, §5, §6, §7, §8, §9

Assay [9] deals with Pseudomonas aeruginosa. The assay can be described thus: Minimum inhibitory concentration (MIC) in agar. It is filed as cell-based. The settings on record: Pseudomonas aeruginosa (B). Here is the method:
as §1, §2, §3, §4, §5, §6, §7, §8, §9

In assay [10] the test system is Citrobacter freundii. The assay can be described thus: Minimum inhibitory concentration (MIC) in agar. In kind it is cell-based. The following applies: Citrobacter freundii (B). Here is the method:
as §1, §2, §3, §4, §5, §6, §7, §8, §9

Assay [11] concerns Escherichia coli. The assay can be described thus: Minimum inhibitory concentration (MIC) in agar. It is filed as cell-based. The following applies: Escherichia coli (B). The method, then: as §1, §2, §3, §4, §5, §6, §7, §8, §9
The test system of assay [12] is Aspergillus terreus. The assay can be described thus: Minimum inhibitory concentration (MIC) in agar. The following applies: Aspergillus terreus (F). In kind it is cell-based. The method, then: as §1, §2, §3, §4, §5, §6, §7, §8, §9
The subject of assay [13] is Klebsiella pneumoniae. The assay can be described thus: Minimum inhibitory concentration (MIC) in agar. In kind it is cell-based. The following applies: Klebsiella pneumoniae (B). Here is the method: as §1, §2, §3, §4, §5, §6, §7, §8, §9
The subject of assay [14] is Pseudomonas oleovorans. The assay can be described thus: Minimum inhibitory concentration (MIC) in agar. It is filed as cell-based. The following applies: Pseudomonas oleovorans (B). The method, then:
as §1, §2, §3, §4, §5, §6, §7, §8, §9

Assay [15] has as its system Proteus vulgaris. The assay can be described thus: Minimum inhibitory concentration (MIC) in agar. The following applies: Proteus vulgaris (B). In kind it is cell-based. Here is the method:
as §1, §2, §3, §4, §5, §6, §7, §8, §9

Assay [16] deals with bacteria, fungi and yeasts. The assay can be described thus: Antimicrobial efficacy, overall statements. In kind it is cell-based. The method, then:
Below, the antimicrobial efficacy of a composition according to the invention consisting of 50% by weight of isorbide caprylate 1 and 50% by weight of ethylhexylglycerin against bacteria, fungi and yeasts is examined (hereinbelow, the composition is referred to as “composition A”). For the tests with bacteria, composition A was diluted with butyl polyglycol and then, at 50° C., added to liquid CASO agar (casein-peptone agar) buffered to pH 7 (+/−0.2) in various concentrations (hereinbelow referred to as compositions B1, B2, etc.). For the tests with fungi and yeasts, composition A was diluted with butyl polyglycol and then added to liquid Sabouraud 4% dextrose agar buffered to pH 5.6 (+/−0.2) in various concentrations (hereinbelow referred to as compositions PH1, PH2, etc.). […]
as §2, §9

Where [17] appears, read: MIC mixture x factor 0.5 (composition A).
The mark [18] stands for this setting: Sabouraud 4% dextrose agar pH 5.6 (+/-0.2).
Where [19] appears, read: CASO agar pH 7 (+/-0.2), read-out: minimum inhibitory concentration (MIC), meas.
The mark [20] stands for this setting: Sabouraud 4% dextrose agar pH 5.6 (+/-0.2), read-out: minimum inhibitory concentration (MIC), meas.

Like-named read-outs stand apart in the source and are kept apart here.

As for `CCCCCCCC(=O)O` [caprylic acid], the “antimicrobial activity (in words)” value in [1] (at a pH of 6 or above) is recorded as “no antimicrobial activity”. Also, the “antimicrobial efficacy (in words)” value in assay [1] is reported as “antimicrobially effective”.

Consider `CCCCC(CC)COCC(O)CO` (stereo not shown) [ethylhexylglycerin], for which the “minimum inhibitory concentration of the component in the mixture employed (Qa / Qb), calc.” value in assay [2] (setting [17]) is given as 250 ppm; in assay [3] (setting [17]), 2500 ppm; in assay [4] (setting [17]), 500 ppm; in [5] (setting [17]) it was 125 ppm; in [6] (setting [17]), 125 ppm; in assay [7] (setting [17]), 375 ppm. In addition, the “minimum inhibitory concentration of the component in the mixture employed (Qa / Qb), calc.” value in [8] (setting [17]) is 375 ppm; in [9] (setting [17]) it was 2500 ppm; in assay [10] (setting [17]) it was 750 ppm; in [11] (setting [17]) it was 750 ppm; in [12] (setting [17]) it was 250 ppm; in assay [13] (setting [17]), 1000 ppm. In addition, the “minimum inhibitory concentration of the component in the mixture employed (Qa / Qb), calc.” value in assay [14] (setting [17]) is reported as 5000 ppm; in [15] (setting [17]), 750 ppm. The “minimum inhibitory concentration (MIC), meas.” value in assay [2] (setting [18]) is on record as 750 ppm; in assay [3] (CASO agar pH 7 (+/-0.2)), 2000 ppm; in [4] (CASO agar pH 7 (+/-0.2)), 750 ppm; in [5] (setting [18]), 500 ppm; in [6] (setting [18]) it was 500 ppm; in assay [7] (setting [18]), 1000 ppm. The “minimum inhibitory concentration (MIC), meas.” value was 1000 ppm in assay [8] (setting [18]); 5000 ppm in [9] (CASO agar pH 7 (+/-0.2)); 1500 ppm in [10] (CASO agar pH 7 (+/-0.2)); 1000 ppm in [11] (CASO agar pH 7 (+/-0.2)); 1000 ppm in assay [12] (setting [18]); 2000 ppm in assay [13] (CASO agar pH 7 (+/-0.2)). In addition, the “minimum inhibitory concentration (MIC), meas.” value in assay [14] (CASO agar pH 7 (+/-0.2)) was 5000 ppm; in assay [15] (CASO agar pH 7 (+/-0.2)) it was 1500 ppm.

As for `O[C@@H]1CO[C@H]2[C@@H]1OC[C@@H]2O` [isosorbide], the “antimicrobial activity (in words)” value in assay [16] (summary of the results of Table 2) is given as “neither isosorbide nor isosorbide dicaprylate are antimicrobially active”. In addition, the MIC in assay [2] (Talaromyces minioluteus, Sabouraud 4% dextrose agar pH 5.6 (+/-0.2), read-out: minimum inhibitory concentration (MIC), meas.) was 10000 µg/mL; in [3] (Klebsiella aerogenes, CASO agar pH 7 (+/-0.2), read-out: minimum inhibitory concentration (MIC), meas.) it was 10000 µg/mL; in [4] (setting [19]) it was 10000 µg/mL; in assay [5] (setting [20]), 10000 µg/mL; in assay [6] (setting [20]), 10000 µg/mL; in assay [7] (setting [20]) it was 10000 µg/mL. The MIC in assay [8] (setting [20]), in assay [9] (setting [19]), in assay [10] (setting [19]), in assay [11] (setting [19]), in assay [12] (setting [20]) and in assay [13] (setting [19]) was 10000 µg/mL each time. Further, the MIC was found to be 10000 µg/mL in assay [14] (Ectopseudomonas oleovorans, CASO agar pH 7 (+/-0.2), read-out: minimum inhibitory concentration (MIC), meas.) and 10000 µg/mL in assay [15] (setting [19]).

As to isosorbide monocaprylate, the “antimicrobial activity (in words)” value in assay [16] (concluded from the MICs of isosorbide caprylate 1 and of its other constituents) is given as “significant antimicrobial activity”.
